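Following 48 hours of exposure in 96-well plates, responses at five concentrations were used to interpolate endpoints linearly. Abbreviation: GI50, concentration required for 50% inhibition of growth. TGI denotes the concentration required for complete inhibition of growth.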
How the values were obtained:
Assay in all cases: inhibition of tumour cell growth, NCI panel, 48 h
786-0 renal = system: 786-0 renal
A498 renal = system: A498 renal
A549 NSCLC = system: A549 NSCLC
ACHN renal = system: ACHN renal
BT-549 breast = system: BT-549 breast
CAKI-1 renal = system: CAKI-1 renal
CCRF-CEM leukemia = system: CCRF-CEM leukemia
COLO 205 colon = system: COLO 205 colon
DU-145 prostate = system: DU-145 prostate
EKVX NSCLC = system: EKVX NSCLC
HCC-2998 colon = system: HCC-2998 colon
HCT-116 colon = system: HCT-116 colon
HCT-15 colon = system: HCT-15 colon
HL-60(TB) leukemia = system: HL-60(TB) leukemia
HOP-62 NSCLC = system: HOP-62 NSCLC
HOP-92 NSCLC = system: HOP-92 NSCLC
HS 578T breast = system: HS 578T breast
HT29 colon = system: HT29 colon
IGROV1 ovarian = system: IGROV1 ovarian
K-562 leukemia = system: K-562 leukemia
KM12 colon = system: KM12 colon
LOX IMVI melanoma = system: LOX IMVI melanoma
M14 melanoma = system: M14 melanoma
MALME-3M melanoma = system: MALME-3M melanoma
MCF7 breast = system: MCF7 breast
MDA-MB-231 breast = system: MDA-MB-231 breast
MDA-MB-435 = system: MDA-MB-435
MOLT-4 leukemia = system: MOLT-4 leukemia
NCI-H226 lung = system: NCI-H226 lung
NCI-H23 lung = system: NCI-H23 lung
NCI-H460 lung = system: NCI-H460 lung
NCI-H522 lung = system: NCI-H522 lung
NCI/ADR-RES ovarian = system: NCI/ADR-RES ovarian
OVCAR-3 ovarian = system: OVCAR-3 ovarian
OVCAR-4 ovarian = system: OVCAR-4 ovarian
OVCAR-5 ovarian = system: OVCAR-5 ovarian
OVCAR-8 ovarian = system: OVCAR-8 ovarian
PC-3 prostate = system: PC-3 prostate
RPMI-8226 leukemia = system: RPMI-8226 leukemia
RXF 393 renal = system: RXF 393 renal
SF-268 CNS = system: SF-268 CNS
SF-295 CNS = system: SF-295 CNS
SF-539 CNS = system: SF-539 CNS
SK-MEL-2 melanoma = system: SK-MEL-2 melanoma
SK-MEL-28 melanoma = system: SK-MEL-28 melanoma
SK-MEL-5 melanoma = system: SK-MEL-5 melanoma
SK-OV-3 ovarian = system: SK-OV-3 ovarian
SN12C renal = system: SN12C renal
SNB-19 CNS = system: SNB-19 CNS
SNB-75 CNS = system: SNB-75 CNS
SR leukemia = system: SR leukemia
SW-620 colon = system: SW-620 colon
T-47D breast = system: T-47D breast
TK-10 renal = system: TK-10 renal
U251 CNS = system: U251 CNS
UACC-257 melanoma = system: UACC-257 melanoma
UACC-62 melanoma = system: UACC-62 melanoma
UO-31 renal = system: UO-31 renal

Structure (SMILES): Nc1nc(Br)nc2c1ncn2C1CC(O)C(CO)O1 (stereo not drawn)
- GI50 (786-0 renal): 34.2 µM
- TGI (786-0 renal): > 100 µM
- GI50 (A498 renal): 21 µM
- TGI (A498 renal): 99.4 µM
- GI50 (A549 NSCLC): 5.34 µM
- TGI (A549 NSCLC): > 100 µM
- GI50 (ACHN renal): 3.7 µM
- TGI (ACHN renal): > 100 µM
- GI50 (BT-549 breast): 3.52 µM
- TGI (BT-549 breast): > 100 µM
- GI50 (CAKI-1 renal): 2.88 µM
- TGI (CAKI-1 renal): > 29.9 µM
- GI50 (CCRF-CEM leukemia): 0.204 µM
- TGI (CCRF-CEM leukemia): > 100 µM
- GI50 (COLO 205 colon): 13.7 µM
- TGI (COLO 205 colon): > 100 µM
- GI50 (DU-145 prostate): 44.3 µM
- TGI (DU-145 prostate): > 100 µM
- GI50 (EKVX NSCLC): > 100 µM
- TGI (EKVX NSCLC): > 100 µM
- GI50 (HCC-2998 colon): 4.55 µM
- TGI (HCC-2998 colon): > 100 µM
- GI50 (HCT-116 colon): 2.76 µM
- TGI (HCT-116 colon): > 100 µM
- GI50 (HCT-15 colon): > 63.9 µM
- TGI (HCT-15 colon): > 100 µM
- GI50 (HL-60(TB) leukemia): 0.0835 µM
- GI50 (HOP-62 NSCLC): 4.68 µM
- TGI (HOP-62 NSCLC): > 100 µM
- GI50 (HOP-92 NSCLC): 2.79 µM
- TGI (HOP-92 NSCLC): > 100 µM
- GI50 (HS 578T breast): > 93.3 µM
- TGI (HS 578T breast): > 100 µM
- GI50 (HT29 colon): 47.7 µM
- TGI (HT29 colon): > 100 µM
- TGI (IGROV1 ovarian): > 69.4 µM
- GI50 (K-562 leukemia): > 24 µM
- TGI (K-562 leukemia): > 100 µM
- GI50 (KM12 colon): > 100 µM
- TGI (KM12 colon): > 100 µM
- GI50 (LOX IMVI melanoma): 29.8 µM
- TGI (LOX IMVI melanoma): > 100 µM
- GI50 (M14 melanoma): 1.1 µM
- TGI (M14 melanoma): 8.56 µM
- GI50 (MALME-3M melanoma): > 100 µM
- TGI (MALME-3M melanoma): > 100 µM
- GI50 (MCF7 breast): 1.26 µM
- TGI (MCF7 breast): > 100 µM
- GI50 (MDA-MB-231 breast): > 71.2 µM
- TGI (MDA-MB-231 breast): > 100 µM
- GI50 (MDA-MB-435): 11.6 µM
- TGI (MDA-MB-435): > 100 µM
- GI50 (MOLT-4 leukemia): 0.408 µM
- TGI (MOLT-4 leukemia): > 100 µM
- GI50 (NCI-H226 lung): 25.2 µM
- TGI (NCI-H226 lung): > 100 µM
- GI50 (NCI-H23 lung): 1.08 µM
- TGI (NCI-H23 lung): > 100 µM
- GI50 (NCI-H460 lung): 61 µM
- TGI (NCI-H460 lung): > 100 µM
- GI50 (NCI-H522 lung): 0.698 µM
- TGI (NCI-H522 lung): > 100 µM
- GI50 (NCI/ADR-RES ovarian): 0.384 µM
- TGI (NCI/ADR-RES ovarian): > 100 µM
- GI50 (OVCAR-3 ovarian): > 100 µM
- TGI (OVCAR-3 ovarian): > 100 µM
- GI50 (OVCAR-4 ovarian): > 100 µM
- TGI (OVCAR-4 ovarian): > 100 µM
- GI50 (OVCAR-5 ovarian): 90.8 µM
- TGI (OVCAR-5 ovarian): > 100 µM
- GI50 (OVCAR-8 ovarian): 0.18 µM
- TGI (OVCAR-8 ovarian): > 100 µM
- GI50 (PC-3 prostate): > 20.1 µM
- TGI (PC-3 prostate): > 100 µM
- GI50 (RPMI-8226 leukemia): > 25 µM
- TGI (RPMI-8226 leukemia): > 100 µM
- GI50 (RXF 393 renal): 32.8 µM
- TGI (RXF 393 renal): > 100 µM
- GI50 (SF-268 CNS): 99.8 µM
- TGI (SF-268 CNS): > 100 µM
- GI50 (SF-295 CNS): 18.4 µM
- TGI (SF-295 CNS): > 76.4 µM
- GI50 (SF-539 CNS): 27.4 µM
- TGI (SF-539 CNS): > 100 µM
- GI50 (SK-MEL-2 melanoma): > 100 µM
- TGI (SK-MEL-2 melanoma): > 100 µM
- GI50 (SK-MEL-28 melanoma): > 100 µM
- TGI (SK-MEL-28 melanoma): > 100 µM
- GI50 (SK-MEL-5 melanoma): 29.3 µM
- TGI (SK-MEL-5 melanoma): > 100 µM
- GI50 (SK-OV-3 ovarian): > 100 µM
- TGI (SK-OV-3 ovarian): > 100 µM
- GI50 (SN12C renal): 0.744 µM
- TGI (SN12C renal): > 100 µM
- TGI (SNB-19 CNS): > 56.9 µM
- GI50 (SNB-75 CNS): > 100 µM
- TGI (SNB-75 CNS): > 100 µM
- GI50 (SR leukemia): 3.13 µM
- TGI (SR leukemia): > 22.4 µM
- GI50 (SW-620 colon): 16.5 µM
- TGI (SW-620 colon): > 100 µM
- GI50 (T-47D breast): > 60.7 µM
- TGI (T-47D breast): > 100 µM
- GI50 (TK-10 renal): > 100 µM
- TGI (TK-10 renal): > 100 µM
- GI50 (U251 CNS): 11.4 µM
- TGI (U251 CNS): > 100 µM
- GI50 (UACC-257 melanoma): 27.3 µM
- TGI (UACC-257 melanoma): > 100 µM
- GI50 (UACC-62 melanoma): 2.4 µM
- TGI (UACC-62 melanoma): > 100 µM
- GI50 (UO-31 renal): 1.3 µM
- TGI (UO-31 renal): > 100 µM

— PubChem BioAssay (NCI)
